Results: PubChem BioAssay (NCI)
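Values below derive from 48-hour exposures of cells grown in 96-well plates, with endpoints linearly interpolated between the two concentrations bracketing the appropriate inhibition level. TGI marks complete inhibition of growth.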

Assays:
Assay in all cases: DTP human tumour cell line panel, 48 h
[1] = system: PC-3 prostate
[2] = system: HT29 colon
[3] = system: HCT-116 colon
[4] = system: TK-10 renal
[5] = system: OVCAR-4 ovarian
[6] = system: SF-539 CNS
[7] = system: MDA-MB-435
[8] = system: SK-MEL-2 melanoma
[9] = system: SK-OV-3 ovarian
[10] = system: M14 melanoma
[11] = system: NCI-H226 lung
[12] = system: OVCAR-8 ovarian
[13] = system: HOP-92 NSCLC
[14] = system: NCI/ADR-RES ovarian
[15] = system: A498 renal
[16] = system: ACHN renal
[17] = system: BT-549 breast
[18] = system: SNB-75 CNS
[19] = system: UACC-62 melanoma
[20] = system: SNB-19 CNS

SMILES | TGI [1] [µM] | TGI [2] [µM] | TGI [3] [µM] | TGI [4] [µM] | TGI [5] [µM] | TGI [6] [µM] | TGI [7] [µM] | TGI [8] [µM] | TGI [9] [µM] | TGI [10] [µM] | TGI [11] [µM] | TGI [12] [µM] | TGI [13] [µM] | TGI [14] [µM] | TGI [15] [µM] | TGI [16] [µM] | TGI [17] [µM] | TGI [18] [µM] | TGI [19] [µM] | TGI [20] [µM]
CC1=NN(c2cccc(Cl)c2)C2(SCC(=O)N2c2nc3ccccc3s2)/C1=C\c1ccccc1O (stereo not drawn) | 61.1 | 67.4 | 28.2 | > 100 | > 100 | > 100 | 60.2 | 44.2 | 51.3 | 55.4 | > 100 | 42 | 46.1 | 55.5 | 38.4 | 49 |  |  |  | 
CCN(CC)CCN(C(=Nc1ccccc1)N1CCOCC1)c1ccccc1 | > 100 | > 100 | 89.8 | > 100 | > 100 | > 100 | > 100 | > 100 | > 100 | > 100 | > 100 | > 100 |  | > 100 |  |  | > 100 | > 100 | > 100 | > 100
CCOP(=O)(OCC)C(c1ccc(F)cc1)N(C(=O)NC(F)(F)F)c1ccc(OC)cc1 (stereo not drawn) |  | > 100 | > 100 | > 100 |  | > 100 | > 100 |  |  | > 100 | > 100 | > 100 |  | > 100 |  | > 100 |  | > 100 |  | > 100
O=C(CC(C(=O)c1ccsc1)c1ccc2c(c1)OCO2)c1ccccc1 (stereo not drawn) |  | > 100 | > 100 | > 100 | > 100 | > 100 | > 100 |  | > 100 | > 100 | > 100 | > 100 | > 100 | > 100 | > 100 | > 100 |  | > 100 | > 100 | 
CC1CCC(C(=O)O)(C(Br)C(=O)O)CC1 (stereo not drawn) | > 100 | > 100 | > 100 | > 100 | > 100 |  | > 100 | > 100 |  | > 100 | > 100 | > 100 | > 100 | > 100 |  | > 100 | > 100 | > 100 | > 100 | > 100
CCCC(=O)OC1CC(n2cc(F)c(=O)[nH]c2=O)OC1COP(=O)(OCC(Cl)(Cl)Cl)OCC(Cl)(Cl)Cl (stereo not drawn) | > 100 | 41.3 | > 51.1 | > 100 | > 100 |  | > 100 | > 100 | > 31.6 | > 31.6 | > 100 | > 100 | > 100 | > 31.6 |  | > 96 |  | 76.6 | > 100 | > 100
N#CC12C(=O)N=C(N)C1(C#N)C(c1ccco1)NC1=C2CCCC1 (stereo not drawn) | > 100 | > 100 | > 100 | > 100 | > 100 |  | > 100 | > 100 | > 100 | > 100 | > 100 | > 100 | > 100 | > 100 | > 100 | > 100 | > 100 |  | > 100 | > 100
CCOC(=O)Cn1c(=O)c2nc(SC)sc2n(-c2ccccc2)c1=O | > 100 | > 100 | > 100 | > 100 |  |  |  | > 100 |  | > 100 | > 100 | > 100 | > 100 |  | > 100 | > 100 | > 100 | > 100 | > 100 | > 100
CC1=NS(=O)(=O)c2ccccc2N1 |  | > 100 | > 100 | > 100 | > 100 | > 100 |  | > 100 | > 100 | > 100 | > 100 | > 100 | > 100 |  | > 100 | > 100 |  | > 100 | > 100 | > 100
OCCc1ccsc1-c1sc(-c2cc(CCO)c(-c3sccc3CCO)s2)cc1CCO | 24.1 |  | 43.8 | 44 | 34 |  | 41.1 | 29.5 | 35.8 | 23.7 |  | 29.5 | 32.6 | 38.5 | 40.3 | 35.9 | 20.3 |  | 25.4 | 36.5
CSC(=S)N/N=C(\C)c1ccc(S(=O)(=O)N(C)c2ccccc2)cc1 | > 100 | > 100 | > 100 | > 100 | > 100 | > 100 | > 100 | > 100 | > 100 | > 100 | > 100 | > 100 | > 100 | > 100 | > 100 | > 100 |  | > 100 | > 100 | > 100
CSc1nsc(-c2ccccc2)[s+]1 |  |  | > 100 | > 100 | > 100 | > 100 |  | > 100 | > 100 | > 100 | > 100 | > 100 |  |  | > 100 | > 100 |  | > 100 | > 100 | > 100
COc1cc(C2c3cc4c(cc3OC(NN)C2C)OCO4)cc(OC)c1OC (stereo not drawn) | > 100 |  | > 28.2 | > 100 | > 100 | 0.6 |  | > 100 | > 100 | > 100 | > 24.4 | > 100 | 84.8 | > 100 | 0.709 | > 100 | > 100 | > 75.2 | > 100 | > 100
COc1ccc2c(C)cc(=O)oc2c1OC | > 100 | > 100 | > 100 | > 100 | > 100 |  | > 100 | > 100 | > 100 | > 100 | > 100 | > 100 |  | > 100 | > 100 | > 100 |  | > 100 | > 100 | > 100
